{"source": "patent US10913772B2", "about": "“Peptide for preventing or treating inflammatory diseases and use thereof” (KINE SCIENCES Co., Ltd., priority 2016, dated 2021)", "key": {"[1]": {"test_system": "collagen-induced arthritis (CIA) mouse model", "assay": "Arthritis progression index in collagen-induced arthritis mouse model", "format": "in vivo, mouse (DBA/1J)", "parameters": "key: 0-4 per leg, summed over four legs (0-16), mean of two observers", "settings": "Table 3, methotrexate 1 mg/kg", "experimental": "In Example 2, using a collagen-induced arthritis mouse model in the following document, a therapeutic effect of a RGD dimer for a representative inflammatory disease, rheumatoid arthritis was confirmed (Nat Protoc. 2007; 2(5):1269-75.).\nA collagen-induced arthritis (CIA) mouse model was prepared as follows, as an autoimmune disease-based arthritis model with characteristics similar to human rheumatoid arthritis.\nFirst, a bovine type II collagen (Chondrex Corporation, USA) and a Freund's complete adjuvant (Chondrex Corporation, USA) were mixed at a ratio of 1:1 and emulsified, and then 50 μl of the emulsified collagen solution was injected intradermally into the tail of a 6-week-old DBA/1J mouse to induce primary immunization. At two weeks after the primary immunization, the bovine type II collagen and the Freund's complete adjuvant were mixed at a ratio of 1:1 and emulsified, and then 50 μl of the emulsified collagen solution was injected intradermally into the tail of the mouse again to induce secondary immunization (boosting).\nAfter the secondary immunization, from the next day, the peptide of the present invention ([…] (1 μmole)) was administered intraperitoneally three times a week and a PBS-treated group was used as a control (Vehicle control). The preparation process of the collagen-induced arthritis mouse model and the administration time of the peptide were schematically illustrated in FIG. 1.\nIn order to investigate the development of arthritis progression according to the peptide treatment of the present invention, the deepening degree of arthritis with time was measured by evaluating an arthritis progression index. Two observers who were unaware of the specific experimental conditions evaluated progression of arthritis three times a week. In this case, the arthritis progression index was evaluated by 0 to 4 scores per leg according to an arthritis progression evaluation standard by Rossoliniec and the like in Table 1 below to be represented by a total of 0 to 16 scores (a sum of four legs), and thereafter, two observers calculated an average value of the evaluated results to digitize the severity of arthritis.\nIn order to confirm the efficacy for each treatment concentration of the peptide according to the present invention, by using the same method as Example 2-2, an arthritis therapeutic effect according to the peptide treatment at various concentrations (0.1 μmole, 1 μmole, and 10 μmole) was evaluated by the arthritis progression index.\nMethotrexate (MTX), one of drugs which are used as arthritis therapeutic agents in a current clinical practice, had excellent anti-inflammatory and arthritis therapeutic effects as an immunodepressant, but may have side effects such as toxicity to normal cells, oral ulcer, alopecia, interstitial pneumonia, bone marrow suppression, and the like. As a result, the methotrexate is known as a drug that needs to pay close attention after medication with sufficient medication counseling. As a result, the arthritis therapeutic effect according to the peptide treatment at various concentrations was compared with that of the case of treating methotrexate (1 mg/kg)."}, "[2]": {"assay": "Evaluation of toxicity: mortality and change in body weight of mouse", "format": "in vivo", "settings": "for Body weight: i.p., individual mice", "experimental": "In Example 3, in order to confirm the toxicity of the peptide of the present invention, the RGD dimer was intraperitoneally administered to mouse at various concentrations (0.1 μmole, 1 μmole, and 10 μmole), and then the mortality and a change in body weight of each mouse were measured. On the other hand, as a control, a non-administration group (Normal) and a PBS-treated group (PBS) were used."}}, "note": "Where “and” joins values, the source holds several entries; their conditions need not be identical. Equal entries are not always repeated. No end group written: not given here.", "data": [{"compound": "CN(Cc1cnc2nc(N)nc(N)c2n1)c1ccc(C(=O)N[C@@H](CCC(=O)O)C(=O)O)cc1", "note": "[MTX, methotrexate]", "values": [{"measurement": "arthritis progression index", "setting": "[1]; day 20", "value": 0.8}, {"measurement": "arthritis progression index", "setting": "[1]; day 22", "value": 0.8}, {"measurement": "arthritis progression index", "setting": "[1]; day 24", "value": 1.0}, {"measurement": "arthritis progression index", "setting": "[1]; day 27", "value": 1.2}, {"measurement": "arthritis progression index", "setting": "[1]; day 29", "value": 1.4}, {"measurement": "arthritis progression index", "setting": "[1]; day 31", "value": 1.8}, {"measurement": "arthritis progression index", "setting": "[1]; day 34", "value": 1.8}, {"measurement": "arthritis progression index", "setting": "[1]; day 36", "value": 3.2}]}, {"compound": "RDGRDG [RDG dimer, RDGRDG]", "values": [{"measurement": "mortality of the mouse", "setting": "[2]; 0.1 μmole, 1 μmole or 10 μmole, intraperitoneally", "value": "not observed"}, {"measurement": "Body weight", "setting": "[2]; 10 umole, day 17", "value": "23.74 g and 20.75 g and 18.48 g"}, {"measurement": "Body weight", "setting": "[2]; 10 umole, day 21", "value": "23.8 g and 21.9 g and 20.5 g"}, {"measurement": "Body weight", "setting": "[2]; 10 umole, day 24", "value": "24.2 g and 22 g and 20.1 g"}, {"measurement": "Body weight", "setting": "[2]; 10 umole, day 27", "value": "23.8 g and 21.6 g and 20.5 g"}, {"measurement": "Body weight", "setting": "[2]; 10 umole, day 31", "value": "23.9 g and 22 g"}, {"measurement": "Body weight", "setting": "[2]; 10 umole, day 34", "value": "24.8 g and 22.3 g"}, {"measurement": "difference in body weight from the control", "setting": "[2]; all the concentrations (0.1, 1 and 10 μmole), intraperitoneally", "value": "did not have a large difference"}, {"measurement": "Body weight", "setting": "[2]; first group printed 1 umole, day 17", "value": "21.65 g and 24.51 g and 18.25 g and 21.88 g and 22.3 g and 21.96 g and 18.84 g"}, {"measurement": "Body weight", "setting": "[2]; first group printed 1 umole, day 21", "value": "21.8 g and 24.5 g and 18.4 g and 21.5 g and 22 g (2×) and 19.6 g"}, {"measurement": "Body weight", "setting": "[2]; first group printed 1 umole, day 24", "value": "21.8 g and 24.9 g and 18.2 g and 22.4 g and 22.8 g and 21.3 g and 20.6 g"}, {"measurement": "Body weight", "setting": "[2]; first group printed 1 umole, day 27", "value": "22.2 g and 25 g and 18.1 g and 22.7 g and 22.9 g and 21.3 g and 20.5 g"}, {"measurement": "Body weight", "setting": "[2]; first group printed 1 umole, day 31", "value": "22.4 g and 25.3 g and 18.8 g and 22.3 g and 22.6 g and 21.2 g and 20.7 g"}, {"measurement": "Body weight", "setting": "[2]; first group printed 1 umole, day 34", "value": "23.1 g (2×) and 26.1 g and 19 g and 23 g and 22.6 g and 21.8 g"}, {"measurement": "Body weight", "setting": "[2]; second group printed 1 umole, day 17", "value": "22.7 g (2×) and 21.3 g and 18.96 g and 20.63 g and 20.61 g and 21.07 g"}, {"measurement": "Body weight", "setting": "[2]; second group printed 1 umole, day 21", "value": "22.3 g and 22.4 g and 19.6 g and 20.6 g and 21.1 g and 21.3 g and 22.6 g"}, {"measurement": "Body weight", "setting": "[2]; second group printed 1 umole, day 24", "value": "23.9 g and 22.2 g and 20 g and 20.8 g and 21.4 g and 21.7 g and 23.2 g"}, {"measurement": "Body weight", "setting": "[2]; second group printed 1 umole, day 27", "value": "24.4 g and 22.3 g and 20.1 g and 21.2 g and 21.3 g and 21.7 g and 23.3 g"}, {"measurement": "Body weight", "setting": "[2]; second group printed 1 umole, day 31", "value": "22.6 g and 22.7 g and 20.2 g and 20.1 g and 21.3 g and 22.2 g and 23.4 g"}, {"measurement": "Body weight", "setting": "[2]; second group printed 1 umole, day 34", "value": "23 g and 23.6 g and 20.5 g and 18.6 g and 20.6 g and 22.5 g and 24.2 g"}]}]}
